Measured values from ChEMBL document CHEMBL1201862, “PubChem BioAssay data set” (2004).
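Results reflect a 48-hour exposure of cells in 96-well plates to compound at five concentrations. GI50 marks 50% less growth.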 The source made the active and inactive calls. No stated cut-off is given here; in the data, active = GI50 up to about 1.1 µM and inactive = higher.

Columns and labels:
Experiment in all cases: growth of human tumour cells (NCI), 48 h
[1] = tested on: SF-268
[2] = tested on: OVCAR-5
[3] = tested on: TK-10
[4] = tested on: HL-60
[5] = tested on: SNB-19
[6] = tested on: SR
[7] = tested on: A498
[8] = tested on: UACC-62
[9] = tested on: COLO 205
[10] = tested on: CCRF-CEM
[11] = tested on: SNB-75
[12] = tested on: NCI-H460
[13] = tested on: OVCAR-4
[14] = tested on: CAKI-1
[15] = tested on: HT-29
[16] = tested on: SK-OV-3
[17] = tested on: HCT-15
[18] = tested on: NCI/ADR-RES
[19] = tested on: PC-3
[20] = tested on: BT-549

Row | SMILES | GI50 [1] | GI50 [2] | GI50 [3] | GI50 [4] | GI50 [5] | GI50 [6] | GI50 [7] | GI50 [8] | GI50 [9] | GI50 [10] | GI50 [11] | GI50 [12] | GI50 [13] | GI50 [14] | GI50 [15] | GI50 [16] | GI50 [17] [µM] | GI50 [18] | GI50 [19] | GI50 [20]
1 | COc1ccc(OC)c(/C=N/N=C(\N)NO)c1 | 23.3 µM (inactive) | 27.4 µM (inactive) | 19.4 µM (inactive) | 25.4 µM (inactive) | 88.7 µM (inactive) | 45.2 µM (inactive) | > 10 µM (inactive) | 4.61 µM (inactive) | 10.6 µM (inactive) | 16.6 µM (inactive) | 72.4 µM (inactive) | 15 µM (inactive) | 7.28 µM (inactive) | 8.04 µM (inactive) | 36.6 µM (inactive) | 30.7 µM (inactive) | 5.98 | – | – | –
2 | CC1(C)CC2=NOS3=C2C(=NO3)C1c1ccccn1 (centres undefined) | > 100 µM (inactive) | > 100 µM (inactive) | > 100 µM (inactive) | 24.3 µM (inactive) | > 100 µM (inactive) | 39.3 µM (inactive) | > 100 µM (inactive) | 44.1 µM (inactive) | 31.2 µM (inactive) | 29 µM (inactive) | > 100 µM (inactive) | 33.7 µM (inactive) | > 100 µM (inactive) | > 100 µM (inactive) | 56.8 µM (inactive) | > 100 µM (inactive) | 20 | > 100 µM (inactive) | > 100 µM (inactive) | –
3 | c1ccc(C[N+]23C(CC[C@H]2c2ccccc2)CC[C@H]3c2ccccc2)cc1 (some centres undefined) | 43.5 µM (inactive) | 86.1 µM (inactive) | 74.1 µM (inactive) | 11.2 µM (inactive) | 29.5 µM (inactive) | 21.4 µM (inactive) | > 100 µM (inactive) | – | 11.2 µM (inactive) | 27.4 µM (inactive) | 21.4 µM (inactive) | – | 31 µM (inactive) | > 100 µM (inactive) | 17.9 µM (inactive) | 67.9 µM (inactive) | – | – | 26.7 µM (inactive) | –
4 | [O-][n+]1onc2c1CCC(=N\O)/C2=N/Nc1ccccc1 | > 100 µM (inactive) | > 100 µM (inactive) | > 100 µM (inactive) | 49.4 µM (inactive) | > 100 µM (inactive) | > 100 µM (inactive) | > 100 µM (inactive) | > 100 µM (inactive) | > 100 µM (inactive) | > 100 µM (inactive) | > 100 µM (inactive) | > 100 µM (inactive) | > 100 µM (inactive) | > 100 µM (inactive) | > 100 µM (inactive) | > 100 µM (inactive) | > 100 | > 100 µM (inactive) | > 100 µM (inactive) | –
5 | Cc1ccccc1-n1c(=O)c2ncn(C3CCCO3)c2n(-c2ccccc2C)c1=S (centres undefined) | > 100 µM (inactive) | > 100 µM (inactive) | > 100 µM (inactive) | > 100 µM (inactive) | > 100 µM (inactive) | – | > 100 µM (inactive) | > 100 µM (inactive) | > 100 µM (inactive) | > 100 µM (inactive) | 79.4 µM (inactive) | – | > 10 µM (inactive) | > 100 µM (inactive) | > 100 µM (inactive) | > 100 µM (inactive) | > 100 | > 100 µM (inactive) | – | > 100 µM (inactive)
6 | CC(C)OC(=O)NNc1cccc(Cl)c1 | > 100 µM (inactive) | > 100 µM (inactive) | > 100 µM (inactive) | 33.3 µM (inactive) | > 100 µM (inactive) | > 100 µM (inactive) | > 100 µM (inactive) | 38.4 µM (inactive) | > 100 µM (inactive) | > 100 µM (inactive) | > 100 µM (inactive) | > 100 µM (inactive) | – | 61.7 µM (inactive) | > 100 µM (inactive) | > 100 µM (inactive) | > 100 | > 100 µM (inactive) | > 100 µM (inactive) | –
7 | CCCCCCCCCC(=O)NC(CCC(=O)N(CCNC(=O)c1nc(-c2ccccc2)oc1-c1ccccc1)Cc1ccccc1)C(=O)O (centres undefined) | 16.5 µM (inactive) | 17.1 µM (inactive) | 22.4 µM (inactive) | – | 17.4 µM (inactive) | – | 21.2 µM (inactive) | – | 19.6 µM (inactive) | – | 14.5 µM (inactive) | 38.1 µM (inactive) | 20.5 µM (inactive) | 16.7 µM (inactive) | 18 µM (inactive) | 16.9 µM (inactive) | 16 | 16.6 µM (inactive) | – | 19.3 µM (inactive)
8 | CCOC(=O)[C@@H]1ON2O[C@@H](OC3CCCC3(c3ccccc3)c3ccccc3)C[C@H]3OC(=O)[C@@H]1C32 (some centres undefined) | 28.7 µM (inactive) | 20.9 µM (inactive) | 21.1 µM (inactive) | 23.2 µM (inactive) | – | 23.1 µM (inactive) | > 100 µM (inactive) | 19.1 µM (inactive) | 38.1 µM (inactive) | 27.5 µM (inactive) | 32.4 µM (inactive) | 35.6 µM (inactive) | – | 17.2 µM (inactive) | 15.2 µM (inactive) | 86.5 µM (inactive) | 31 | 34.4 µM (inactive) | – | –
9 | CC1OC(CC2C=CCc3c(O)c4c(c(O)c32)C(=O)c2ccccc2C4=O)CC(NC(=O)C(F)(F)F)C1O (centres undefined) | 10.3 µM (inactive) | 42.8 µM (inactive) | 2.29 µM (inactive) | 11.8 µM (inactive) | 4.86 µM (inactive) | 3.7 µM (inactive) | 4.69 µM (inactive) | 4.71 µM (inactive) | 13.8 µM (inactive) | 5.11 µM (inactive) | 2.27 µM (inactive) | 5.25 µM (inactive) | 2.79 µM (inactive) | 7.55 µM (inactive) | 14.4 µM (inactive) | 10.2 µM (inactive) | 11.9 | – | – | –
10 | CCCCc1c2c(nc3c1CCc1cc(C=O)c(N)nc1-3)/C(=C/c1ccccc1)CCC2 | > 100 µM (inactive) | > 100 µM (inactive) | > 100 µM (inactive) | 63.1 µM (inactive) | > 100 µM (inactive) | 58.5 µM (inactive) | 19.9 µM (inactive) | > 100 µM (inactive) | 17 µM (inactive) | > 100 µM (inactive) | > 100 µM (inactive) | 40.8 µM (inactive) | > 100 µM (inactive) | > 100 µM (inactive) | > 100 µM (inactive) | > 100 µM (inactive) | 86.3 | – | – | –
11 | CC(C)[Si](OC12CCC(CC1O)CC2CO)(C(C)C)C(C)C (centres undefined) | 14.6 µM (inactive) | 17.4 µM (inactive) | 14.4 µM (inactive) | 1.34 µM (inactive) | 15.3 µM (inactive) | 7.55 µM (inactive) | 16.7 µM (inactive) | 14.9 µM (inactive) | 18 µM (inactive) | 13.4 µM (inactive) | 13.9 µM (inactive) | 12.6 µM (inactive) | 11.5 µM (inactive) | 18.7 µM (inactive) | 15.5 µM (inactive) | 14.4 µM (inactive) | 14.1 | 15 µM (inactive) | 11.8 µM (inactive) | –
12 | COc1ccc2[nH]c3c(c2c1)CCn1c-3nc2ccccc2c1=O | > 25 µM (inactive) | > 25 µM (inactive) | > 25 µM (inactive) | > 25 µM (inactive) | > 25 µM (inactive) | > 25 µM (inactive) | – | – | > 25 µM (inactive) | > 25 µM (inactive) | > 25 µM (inactive) | > 25 µM (inactive) | > 25 µM (inactive) | – | – | > 25 µM (inactive) | > 25 | > 25 µM (inactive) | > 25 µM (inactive) | –
